Laboratory results reported in US8722910B2, “Diyne compositions” (Evolva AG, priority 2009, dated 2014).
Converted amounts (≈) assume the structure as drawn.

Columns and labels:
Candida albicans = assay: In vitro antifungal activity vs. yeasts (MIC/MFC); format: cell-based; conditions: Candida albicans (n = 8); 90% inhibition endpoint
C. glabrata [1] = assay: In vitro antifungal activity vs. yeasts (MIC/MFC); format: cell-based; conditions: Nakaseomyces glabratus; C. glabrata (n = 1); 90% inhibition endpoint
C. lusitaniae [2] = assay: In vitro antifungal activity vs. yeasts (MIC/MFC); format: cell-based; conditions: Clavispora lusitaniae
C. lipolytica = assay: In vitro antifungal activity vs. yeasts (MIC/MFC); format: cell-based; conditions: Yarrowia lipolytica
C. guilliermondii = assay: In vitro antifungal activity vs. yeasts (MIC/MFC); format: cell-based; conditions: Meyerozyma guilliermondii; C. guilliermondii (n = 1); 90% inhibition endpoint
C. parapsilosis [3] = assay: In vitro antifungal activity vs. yeasts (MIC/MFC); format: cell-based; conditions: Lodderomyces parapsilosis; C. parapsilosis (n = 2); 90% inhibition endpoint
C. krusei [4] = assay: In vitro antifungal activity vs. yeasts (MIC/MFC); format: cell-based; conditions: Pichia kudriavzevii; C. krusei (n = 1); 90% inhibition endpoint
Malassezia furfur = assay: In vitro antifungal activity vs. yeasts (MIC/MFC); format: cell-based; conditions: Malassezia furfur
all Candida strains = assay: MIC range over all Candida strains tested; format: cell-based; conditions: Table 13 strains
ergosterol biosynthesis = assay: 13C-acetate incorporation into ergosterol; format: cell-based, Candida albicans; conditions: drug at about its MIC, added after the first 15 minutes
C. albicans [5] = assay: Effect on the morphology of growing Candida albicans cultures; format: cell-based; conditions: inhibiting concentrations
C. albicans [6] = assay: Rat model of systemic candidiasis, single intravenous infusion, liver burden; format: in vivo; conditions: rats; liver; vs vehicle at 24 hours; dose not given
C. albicans [7] = assay: Rat model of systemic candidiasis, single oral administration, kidney burden; format: in vivo; conditions: rats; vs vehicle at 24 hours; dose not given
Trichophyton tonsurans = assay: In vitro antifungal activity vs. dermatophytes (MIC/MFC); format: cell-based; conditions: 96 h; Trichophyton tonsurans (n = 15); 35° C., 4 days
T. mentagrophytes = assay: as above; format: cell-based; conditions: Trichophyton mentagrophytes, 96 h; T. mentagrophytes (n = 15); 35° C., 4 days
Microsporum canis = assay: as above; format: cell-based; conditions: 96 h; Microsporum canis (n = 15); 35° C., 4 days
T. rubrum = assay: as above; format: cell-based; conditions: Trichophyton rubrum, 96 h; T. rubrum (n = 15); 35° C., 4 days
Epidermophyton floccosum = assay: as above; format: cell-based; conditions: 96 h; Epidermophyton floccosum (n = 15); 35° C., 4 days
[8] = test system: T. rubrum, Terbinafine resistant isolates; assay: as above; format: cell-based; conditions: Trichophyton rubrum, 96 h; T. rubrum (TERB-resistant) (n = 9); 35° C., 4 days
M. cookie = assay: as above; format: cell-based; conditions: 96 h; M. cookie (n = 1); 35° C., 4 days
M. vanbreuseghemii = assay: as above; format: cell-based; conditions: 96 h; M. vanbreuseghemii (n = 1); 35° C., 4 days
M. gypseum = assay: as above; format: cell-based; conditions: Nannizzia gypsea, 96 h; M. gypseum (n = 1); 35° C., 4 days
T. terrestre = assay: as above; format: cell-based; conditions: 96 h; T. terrestre (n = 1); 35° C., 4 days
M. gallinae = assay: as above; format: cell-based; conditions: 96 h; M. gallinae (n = 1); 35° C., 4 days
all dermatophyte strains = assay: MIC and MFC range over all dermatophyte strains tested; format: cell-based, dermatophytes; conditions: Table 14 strains
C. albicans [9] = assay: Susceptibility of clinical isolates (MIC, broth dilution); format: cell-based; conditions: Candida albicans; C. albicans (n = 20); M27-A3, 24 hrs; read at 50% inhibition (potassium salt, Voriconazole), 100% (Amphotericin), MEC (Caspofungin); read-out: MIC90
Procedure: (§1) The efficacy of compound IV″ was investigated on 563 clinical isolates of 33 human fungal pathogens. […] For species with n≧10, the MIC90 (MIC, minimal inhibitory concentration) is given as ng/ml. For species with n≦10, the MIC range is given as ng/ml. 24 h and 48 h reads are indicated (Table 1).
(§2) The in vitro efficacy of antifungal compounds is determined in susceptibility assays, which are indicative for the spectrum and potency of a compound. Susceptibilities are reported as minimal inhibitory concentrations (MIC, as ng/ml or μg/ml) required to inhibit growth to a defined degree compared to the drug free control. The MIC90 defines the MIC required to inhibit growth for ≧90% of the strains of a population tested.
(§3) The MIC90 was calculated for the indicated species.

C. dubliniensis = assay: as above; format: cell-based; conditions: Candida dubliniensis; C. dubliniensis (n = 25); M27-A3, 24 hrs; read at 50% inhibition (potassium salt, Voriconazole), 100% (Amphotericin), MEC (Caspofungin); read-out: MIC90
Procedure: as §1, §2, §3

C. glabrata [10] = assay: as above; format: cell-based; conditions: Nakaseomyces glabratus, 24 h
Procedure: as §1, §2, §3

C. krusei [11] = assay: as above; format: cell-based; conditions: Pichia kudriavzevii; C. krusei (n = 27); M27-A3, 24 hrs; read at 50% inhibition (potassium salt, Voriconazole), 100% (Amphotericin), MEC (Caspofungin); read-out: MIC90
Procedure: as §1, §2, §3

C. lusitaniae [12] = assay: as above; format: cell-based; conditions: Clavispora lusitaniae; C. lusitaniae (n = 24); M27-A3, 24 hrs; read at 50% inhibition (potassium salt, Voriconazole), 100% (Amphotericin), MEC (Caspofungin); read-out: MIC90
Procedure: as §1, §2, §3

C. parapsilosis [13] = assay: as above; format: cell-based; conditions: Lodderomyces parapsilosis, 24 h
Procedure: as §1, §2, §3

C. tropicalis = assay: as above; format: cell-based; conditions: Candida tropicalis; C. tropicalis (n = 35); M27-A3, 24 hrs; read at 50% inhibition (potassium salt, Voriconazole), 100% (Amphotericin), MEC (Caspofungin); read-out: MIC90
Procedure: as §1, §2, §3

A. flavus = assay: Susceptibility of clinical Aspergillus isolates (MIC); format: cell-based; conditions: Aspergillus flavus; A. flavus (n = 2); CLSI M38-A2; 50% growth inhibition; 24 h; read-out: MIC50
Procedure: as §1
(§4) Susceptibilities were determined according to the CLSI reference method M38-A2.

A. fumigatus = assay: as above; format: cell-based; conditions: Aspergillus fumigatus; A. fumigatus (n = 20); CLSI M38-A2; 50% growth inhibition; 24 h; read-out: MIC50
Procedure: as §1, §4

A. nidulans = assay: as above; format: cell-based; conditions: 24 h
Procedure: as §1, §4

A. niger = assay: as above; format: cell-based; conditions: A. niger (n = 6), CLSI M38-A2, 50% growth inhibition, 24 h, read-out: MIC50
Procedure: as §1, §4

A. terreus = assay: as above; format: cell-based; conditions: Aspergillus terreus; A. terreus (n = 5); CLSI M38-A2; 50% growth inhibition; 24 h; read-out: MIC50
Procedure: as §1, §4

A. versicolor = assay: as above; format: cell-based; conditions: Aspergillus versicolor; A. versicolor (n = 3); CLSI M38-A2; 50% growth inhibition; 24 h; read-out: MIC50
Procedure: as §1, §4

Coccidioides spp. = assay: microbe, parasite or virus in culture; format: cell-based; conditions: Coccidioides, 48 h
B. dermatitidis = assay: Susceptibility of clinical dimorphic fungi (MIC); format: cell-based; conditions: Blastomyces dermatitidis; B. dermatitidis (n = 30); CLSI M38-A2; 50% growth reduction; MIC read at 96 h
H. capsulatum = assay: microbe, parasite or virus in culture; format: cell-based; conditions: Histoplasma capsulatum, 120 h
C. albicans [14] = assay: Fatty acid competition (antagonism) in 96-well plates; conditions: 48 h
[15] = test system: Staphylococcus aureus 29213; assay: In vitro Antibacterial Activity; format: cell-based

## OC(Cn1cncn1)(Cn1cncn1)c1ccc(F)cc1F [Fluconazole, reference compound]
Candida albicans
  MIC: 1 µg/mL (≈ 3.27 µM)
C. glabrata [1]
  MIC: 2 µg/mL (≈ 6.53 µM)
C. lusitaniae [2]
  MIC: 0.125 µg/mL (≈ 0.408 µM)
C. lipolytica
  MIC: 0.125 µg/mL (≈ 0.408 µM)
C. guilliermondii
  MIC: 4 µg/mL (≈ 13.1 µM)
C. parapsilosis [3]
  MIC: 1 µg/mL (≈ 3.27 µM)
C. krusei [4]
  MIC: 16 µg/mL (≈ 52.2 µM)
Malassezia furfur
  MIC: 0.125 µg/mL (≈ 0.408 µM)
All Candida strains
  MIC range for all Candida strains: 0.125 to 16 µg/mL
Ergosterol biosynthesis
  net biosynthesis of ergosterol (13C-acetate incorporation): inhibited the incorporation of acetate into ergosterol
C. albicans [5]; microscopy
  effect on hyphal tube formation: did not affect hyphal tube formation
C. albicans [5]; microscopy and MTT
  effect on cell growth: permitted fungal growth (albeit at a reduced rate)
C. albicans [6]
  reduction of tissue burden (cfu/g tissue), comparator: 93%
C. albicans [7]
  reduction of tissue burden (cfu/g tissue), comparator: 90%

## CN(C/C=C/C#CC(C)(C)C)Cc1cccc2ccccc12 [Terbinafine, reference compound]
Trichophyton tonsurans
  MIC: 0.008 µg/mL (≈ 0.0275 µM)
T. mentagrophytes
  MIC: 0.008 µg/mL (≈ 0.0275 µM)
Microsporum canis
  MIC: 0.015 µg/mL (≈ 0.0515 µM)
T. rubrum
  MIC: 0.002 µg/mL (≈ 0.00686 µM)
Epidermophyton floccosum
  MIC: 0.015 µg/mL (≈ 0.0515 µM)
[8]
  MIC: 4 µg/mL (≈ 13.7 µM)
M. cookie
  MIC: 0.008 µg/mL (≈ 0.0275 µM)
M. vanbreuseghemii
  MIC: 0.015 µg/mL (≈ 0.0515 µM)
M. gypseum
  MIC: 0.004 µg/mL (≈ 0.0137 µM)
T. terrestre
  MIC: 0.008 µg/mL (≈ 0.0275 µM)
M. gallinae
  MIC: 0.008 µg/mL (≈ 0.0275 µM)
All dermatophyte strains
  MIC range against all dermatophyte strains: 0.002 to 4 µg/mL
Ergosterol biosynthesis
  net biosynthesis of ergosterol (13C-acetate incorporation): inhibited the incorporation of acetate into ergosterol

## C[C@@H](c1ncncc1F)[C@](O)(Cn1cncn1)c1ccc(F)cc1F [Voriconazole]
C. albicans [9]
  MIC90: 0.03 µg/mL
C. dubliniensis
  MIC90: 0.016 µg/mL
C. glabrata [10]
  MIC90: 0.125 µg/mL (≈ 0.358 µM)
C. krusei [11]
  MIC90: 0.5 µg/mL
C. lusitaniae [12]
  MIC90: 0.03 µg/mL
C. parapsilosis [13]
  MIC90: 0.125 µg/mL (≈ 0.358 µM)
C. tropicalis
  MIC90: 0.03 µg/mL
A. flavus
  MIC50: 0.5 µg/mL (≈ 1.43 µM)
A. fumigatus
  MIC50: 0.25 µg/mL (≈ 0.716 µM)
A. nidulans
  MIC50: 0.125 µg/mL (≈ 0.358 µM)
A. niger
  MIC50: 1 µg/mL (≈ 2.86 µM)
A. terreus
  MIC50: 0.25 µg/mL (≈ 0.716 µM)
A. versicolor
  MIC50: 0.25 µg/mL (≈ 0.716 µM)
Coccidioides spp.
  MIC90: 0.125 µg/mL (≈ 0.358 µM)
B. dermatitidis
  MIC90: 0.25 µg/mL (≈ 0.716 µM)
H. capsulatum
  MIC90: 0.125 µg/mL (≈ 0.358 µM)
C. albicans [14]
  effect of oleic acid / stearic acid on susceptibility: oleic acid did not decrease the susceptibility

## Gentamicin [reference compound]
[15]
  MIC90: Gentamicin—0.78 μg/ml
